Source: ChEMBL document CHEMBL4316641, “Synthesis and Anti-HIV Profile of a Novel Tetrahydroindazolylbenzamide Derivative Obtained by Oxazolone Chemistry” (ACS Med Chem Lett, 2019)
pEC50: −log10 of the molar value. Values belong to the molecule of their own block, whether it stands above or below them. The source made the active and inactive calls. No cut-off for these calls is given here.

Tests used:
[1] = tested on: Human immunodeficiency virus; assay: Inhibition of reverse transcriptase in HIV1 NL4.3 infected in human HeLaP4 cells assessed as reduction in formation of reverse transcribed DNA at 50 fold antiviral EC50 incubated up to 60 mins by quantitative PCR analysis; format: cell-based
[2] = tested on: Human immunodeficiency virus; assay: Antiviral activity against HIV infected in human MT4 cells assessed as inhibition of virus-induced cytopathogenicity by MTT assay; format: functional, organism-based
[3] = Cytotoxicity against human MT4 cells assessed as reduction in cell viability by MTT assay; format: cell-based
[4] = Selectivity index, ratio of CC50 for cytotoxicity against human MT4 cells assessed as reduction in cell viability by MTT assay to EC50 for antiviral activity against HIV infected in human MT4 cells assessed as inhibition of virus-induced cytopathogenicity by MTT assay; format: toxicity, cell-based; details: read-out: Ratio CC50/EC50
[5] = biological target: Human immunodeficiency virus type 1 integrase (Human immunodeficiency virus 1) (UniProt Q7ZJM1); assay: Inhibition of HIV integrase strand transfer activity
[6] = biological target: Human immunodeficiency virus type 1 integrase (Human immunodeficiency virus 1) (UniProt Q7ZJM1); assay: Inhibition of integrase in HIV1 NL4.3 infected in human HeLaP4 cells assessed as increase in increase in 2-LTR circles at 50 fold antiviral EC50 incubated up to 60 mins by quantitative PCR analysis; format: cell-based
[7] = tested on: Human immunodeficiency virus; assay: Inhibition of reverse transcriptase in HIV1 NL4.3 infected in human HeLaP4 cells assessed as reduction in formation of 2-LTRs at 50 fold antiviral EC50 incubated up to 60 mins by quantitative PCR analysis; format: cell-based
[8] = tested on: Human immunodeficiency virus; assay: Inhibition of reverse transcriptase in HIV1 NL4.3 infected in human HeLaP4 cells assessed as reduction in integrated provirus formation at 50 fold antiviral EC50 incubated up to 60 mins by quantitative PCR analysis; format: cell-based
[9] = tested on: Human immunodeficiency virus; assay: Inhibition of reverse transcriptase in HIV1 NL4.3 infected in human HeLaP4 cells assessed as reduction in late reverse transcription by time of addition assay; format: cell-based

Sequence of Human immunodeficiency virus type 1 integrase (Human immunodeficiency virus 1) (Q7ZJM1 as listed by the source): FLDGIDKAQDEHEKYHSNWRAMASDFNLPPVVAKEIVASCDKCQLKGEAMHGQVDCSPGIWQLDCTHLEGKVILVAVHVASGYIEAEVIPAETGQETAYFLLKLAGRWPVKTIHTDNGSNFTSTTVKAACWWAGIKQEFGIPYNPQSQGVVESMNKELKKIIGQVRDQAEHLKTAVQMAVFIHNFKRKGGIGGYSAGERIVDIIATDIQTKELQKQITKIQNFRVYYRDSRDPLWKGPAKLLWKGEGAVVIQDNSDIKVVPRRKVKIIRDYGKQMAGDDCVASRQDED

SMILES: Cc1cn([C@H]2C[C@H](N=[N+]=[N-])[C@@H](CO)O2)c(=O)[nH]c1=O
inhibition [1]: Active

inhibition [5]: inactive
inhibition [6]: inactive
SMILES: CC(NC(=O)c1ccccc1)c1nn(-c2ccc(C(N)=O)cc2)c2c1C(=O)CC(C)(C)C2 (racemic)
pEC50 ([2]; Human immunodeficiency virus 1, MT4, read-out: EC50): 5.56
CC50 [3]: 119 µM
selectivity ratio [4]: 68
inhibition [1]: Active
inhibition [7]: Active
inhibition [8]: Active
inhibition [9]: Active

SMILES: CC(N)c1nn(-c2ccc(C(=O)O)cc2)c2c1C(=O)CC(C)(C)C2.Cl (racemic)
EC50 [2]: Not Active

SMILES: CC(NC(=O)c1ccccc1)c1nn(-c2ccc(C#N)cc2)c2c1C(=O)CC(C)(C)C2 (racemic)
EC50 [2]: Not Active
